The text below walks through data of patent US20070275968A1, “Substituted Biphenyl Derivative” (priority 2004, published 2007).

One data set deals with NRK-49F cells. Description: Collagen synthesis inhibition test. It is filed as cell-based. Particulars: 25 ng/mL TGF-β added, cultured about 44 hr, 3H-labeled proline taken into collagen, no TGF-β = 100% inhibition, no test compound = 0% inhibition, read-out: Collagen synthesis inhibiting activity IC50. As for the experimental part:
Collagen Synthesis Inhibition Test
Collagen synthesis inhibiting activity was evaluated by the following assay.
NRK-49F cells (Dainippon Pharmaceutical) are seeded into a 96-well plate. After becoming confluent, the medium is changed to a serum-free Dulbecco's modified MEM medium (Invitrogen) containing 5 μg/mL insulin, 5 μg/mL transferin, and 5 ng/mL selenious acid. One day later, the medium is changed to a serum-free Dulbecco's modified MEM medium (80 μl) containing 10 ng/mL IGF-II (Sigma) and 50 μg/mL L-ascorbic acid (Sigma), and a ten times concentration of a test compound (10 μl) is added thereto. Thirty minutes later, 25 ng/mL TGF-β (R&D System: 10 μL) is added to the medium, and the cells are cultured for about 44 hr. Twenty four hours before the termination of the culturing, ^3H-labeled proline (Amersham: 1 μCi) is added so as to be taken into collagen in the cells. When the culturing is terminated, 30% trichloroacetic acid (50 μL) is added to the medium. After leaving for 20 min, proteins are precipitated by centrifugation at 3000 rpm for 10 min. The supernatant is removed, and the residue is twice washed with 200 μL of a washing solution (ethanol:ether=3:1). The precipitate is air-dried, and the washing solution is sufficiently removed. After addition of 60 μL of a collagenase solution (2 mg/mL collagenase VII (Sigma), 50 mM Tris-HCl (pH 7.4), 5 mM CaCl2), the resulting mixture is treated at 37° C. for 2 hr to decompose collagen. Then, 90 μL of 15% trichloroacetic acid and 5% tannic acid are added thereto. The resulting mixture is left for 20 min and then centrifuged at 3000 rpm for 10 min. The supernatant (50 μL) is transferred to LumaPlate (PerkinElmer Lifescience) and is air-dried. Then, the amount of ^3H is measured by a Top Count.

Where two headings read alike, the source gives them in different places.

`Cc1cccc(-c2[nH]c(C(C)C)nc2-c2cccc(-c3ccc(S(C)(=O)=O)cc3)c2)n1` [Example 17, 2-{2-Isopropyl-4-[4′-(methylsulfonyl)-1,1′-biphenyl-3-yl]-1H-imidazol-5-yl}-6-methylpyridine] returned a melting point of 104 to 106 °C. For the same compound, in the data set with NRK-49F cells (Rattus norvegicus), the IC50 came to 350 nM.

For `Cc1cccc(-c2[nH]c(C(C)C)nc2-c2cccc(-c3ccc(C(=O)NN4CCN(C)CC4)cc3)c2)n1` [Example 48, N-(4-Methylpiperazin-1-yl)-4-{3-[2-isopropyl-5-(6-methylpyridin-2-yl)-1H-imidazol-4-yl]phenyl}benzamide], the IC50 in the data set on NRK-49F cells (Rattus norvegicus) was determined as 1490 nM.

Compound `Cc1cccc(-c2[nH]c(C(C)C)nc2-c2ccc(F)c(-c3ccc(C(=O)NC4CCOCC4)cc3)c2)n1` [Example 65, N-(Tetrahydropyran-4-yl)-4-{2-fluoro-5-[2-isopropyl-5-(6-methylpyridin-2-yl)-1H-imidazol-4-yl]phenyl}benzamide] came in with a melting point of 130 to 132 °C. For the same compound, the IC50 in the data set with NRK-49F cells (Rattus norvegicus) was 520 nM.

With `Cc1cccc(-c2nc(C(C)C)[nH]c2-c2ccc(F)c(-c3ccc(CN4CCOCC4)cc3)c2)n1` [Example 109], in the data set on NRK-49F cells, the IC50 was determined as 130 nM.

Take `Cc1cccc(-c2nc(C(C)C)[nH]c2-c2ccc(F)c(-c3cnn(C)c3)c2)n1` [Example 110, 2-{5-[4-Fluoro-3-(1-methyl-1H-pyrazol-4-yl)phenyl]-2-isopropyl-1H-imidazol-4-yl}-6-methylpyridine]: the melting point lay in the range of 77 to 97 °C. Moreover, the IC50 in the data set on NRK-49F cells (Rattus norvegicus) turned out to be 50 nM.

In the case of `Cc1cccc(-c2cn(C(C)C)nc2-c2ccc(F)c(-c3cn[nH]c3)c2)n1` [Example 112, 2-{5-[4-Fluoro-3-(1H-pyrazol-4-yl)phenyl]-2-isopropyl-1H-pyrazol-4-yl}-6-methylpyridine], in the data set on NRK-49F cells, the IC50 came to 30 nM.

Consider `Cc1cccc(-c2[nH]c(C(C)C)nc2-c2ccc(F)c(-c3ccc(OCCN4CCCCC4)cc3)c2)n1` [Example 117, 2-{4-[6-Fluoro-4′-(2-piperidin-1-ylethoxy)-1,1′-biphenyl-3-yl]-2-isopropyl-1H-imidazol-5-yl}-6-methylpyridine], for which the IC50 in the data set with NRK-49F cells (Rattus norvegicus) is 1170 nM.

On to `Cc1cccc(-c2nc[nH]c2-c2ccc(F)c(-c3cnn(C)c3)c2)n1` [Example 121, 2-{5-[4-Fluoro-3-(1-methyl-1H-pyrazol-4-yl)phenyl]-1H-imidazol-4-yl}-6-methylpyridine], for which the melting point was 205 °C. Moreover, the half-maximal inhibitory concentration (IC50) with NRK-49F cells (Rattus norvegicus) came to 10 nM.

Compound `Cc1cccc(-c2[nH]c(C(C)C)nc2-c2ccc(F)c(-c3ccc4c(c3)CCS4(=O)=O)c2)n1` [Example 125, 2-{4-[3-(1,1-Dioxido-2,3-dihydro-1-benzothien-5-yl)-4-fluorophenyl]-2-isopropyl-1H-imidazol-5-yl}-6-methylpyridine] showed a melting point of 119 to 123 °C. The IC50 in the data set on NRK-49F cells (Rattus norvegicus) worked out at 230 nM.

With `Cc1cccc(-c2[nH]c(C(C)C)nc2-c2ccc(F)c(-c3ccc(S(N)(=O)=O)cc3)c2)n1` [Example 127, 2′-Fluoro-5′-[2-isopropyl-5-(6-methylpyridin-2-yl)-1H-imidazol-4-yl]-1,1′-biphenyl-4-sulfonamide], the melting point is 245 to 246 °C. Moreover, the IC50 with NRK-49F cells (Rattus norvegicus) was 790 nM.

`Cc1cccc(-c2[nH]c(C(C)C)nc2-c2ccc(F)c(-c3cn(C)cn3)c2)n1` [Example 130, 2-{4-[4-Fluoro-3-(1-methyl-1H-imidazol-4-yl)phenyl]-2-isopropyl-1H-imidazol-5-yl}-6-methylpyridine] came in with a melting point of 100 to 103 °C. In addition, the IC50 with NRK-49F cells (Rattus norvegicus) is 180 nM.

As for `Cc1cccc(-c2[nH]c(C(C)C)nc2-c2ccc(F)c(-c3c[nH]cn3)c2)n1` [Example 137, 2-{4-[4-Fluoro-3-(1H-imidazol-4-yl)phenyl]-2-isopropyl-1H-imidazol-5-yl}-6-methylpyridine], the melting point lay in the range of 268 to 270 °C. Besides, the IC50 in the data set on NRK-49F cells (Rattus norvegicus) was 70 nM.

In the case of `Cc1cccc(-c2n[nH]cc2-c2ccc(F)c(-c3ccc4c(c3)CCS4(=O)=O)c2)n1` [Example 146, 2-{4-[3-(1,1-Dioxido-2,3-dihydro-1-benzothien-5-yl)-4-fluorophenyl]-1H-pyrazol-3-yl}-6-methylpyridine], the melting point was in the range of 107 to 109 °C. For the same compound, in the data set with NRK-49F cells (Rattus norvegicus), the 50% inhibitory concentration (IC50) amounted to 80 nM.

As for `CNS(=O)(=O)c1ccc(-c2cc(-c3c[nH]nc3-c3cccc(C)n3)ccc2F)cc1` [Example 156, 2′-Fluoro-N-methyl-5′-[3-(6-methylpyridin-2-yl)-1H-pyrazol-4-yl]-1,1′-biphenyl-4-sulfonamide], the IC50 with NRK-49F cells (Rattus norvegicus) came to 100 nM.

As for `Cc1cccc(-c2n[nH]cc2-c2ccc(F)c(-c3ccc(C(C)(C)O)cn3)c2)n1` [Example 160, 2-(6-{2-Fluoro-5-[3-(6-methylpyridin-2-yl)-1H-pyrazol-4-yl]phenyl}pyridin-3-yl)propan-2-ol], the melting point was in the range of 169 to 172 °C. In addition, in the data set with NRK-49F cells (Rattus norvegicus), the IC50 was 190 nM.

Consider `Cc1cccc(-c2n[nH]cc2-c2ccc(F)c(-c3c[nH]c(C(C)(C)O)n3)c2)n1` [Example 161, 2-(4-{2-Fluoro-5-[3-(6-methylpyridin-2-yl)-1H-pyrazol-4-yl]phenyl}-1H-imidazol-2-yl)propan-2-ol], for which the melting point fell in the range of 135 to 137 °C. For the same compound, in the data set on NRK-49F cells (Rattus norvegicus), the IC50 was found to be 100 nM.

For `Cc1cccc(-c2n[nH]cc2-c2ccc(F)c(-c3cnn(CCO)c3)c2)n1` [Example 162, 2-(4-{2-Fluoro-5-[3-(6-methylpyridin-2-yl)-1H-pyrazol-4-yl]phenyl}-1H-pyrazol-1-yl)ethanol], in the data set with NRK-49F cells (Rattus norvegicus), the IC50 was 30 nM.

`Cc1cccc(-c2n[nH]cc2-c2ccc(F)c(-c3cn(C)cn3)c2)n1` [Example 172, 2-{4-[4-Fluoro-3-(1-methyl-1H-imidazol-4-yl)phenyl]-1H-pyrazol-3-yl}-6-methylpyridine]: the melting point is 168 to 169 °C. In the data set on NRK-49F cells (Rattus norvegicus), the IC50 amounted to 20 nM.

On to `Cc1cccc(-c2n[nH]cc2-c2ccc(F)c(-c3cn(CCO)cn3)c2)n1` [Example 177, 2-(4-{2-Fluoro-5-[3-(6-methylpyridin-2-yl)-1H-pyrazol-4-yl]phenyl}-1H-imidazol-1-yl)ethanol], for which the melting point came out at 248 °C. Moreover, the IC50 with NRK-49F cells (Rattus norvegicus) was 50 nM.

Turning to `Cc1cccc(-c2n[nH]cc2-c2ccc(F)c(-c3ccc(N4CCOCC4)cn3)c2)n1` [Example 179, 4-(6-{2-Fluoro-5-[3-(6-methylpyridin-2-yl)-1H-pyrazol-4-yl]phenyl}pyridin-3-yl)morpholine], the melting point is 88 to 90 °C. In the data set on NRK-49F cells (Rattus norvegicus), the IC50 was found to be 40 nM.

Compound `Cc1cccc(-c2n[nH]cc2-c2ccc(F)c(-c3ccc(CN4CCOCC4)cn3)c2)n1` [Example 181, 4-[(6-{2-Fluoro-5-[3-(6-methylpyridin-2-yl)-1H-pyrazol-4-yl]phenyl}pyridin-3-yl)methyl]morpholine] showed a melting point of 68 to 70 °C. Moreover, the concentration for half-maximal inhibition (IC50) with NRK-49F cells (Rattus norvegicus) is 20 nM.

As to `Cc1cccc(-c2n[nH]cc2-c2ccc(F)c(-c3cc[nH]c3)c2)n1` [Example 189, 2-{4-[4-Fluoro-3-(1H-pyrrol-3-yl)phenyl]-1H-pyrazol-3-yl}-6-methylpyridine], the melting point was 162 to 164 °C. In the data set with NRK-49F cells (Rattus norvegicus), the IC50 is 20 nM.

Compound `Cc1cccc(-c2n[nH]cc2-c2ccc(F)c(-c3ccc(S(N)(=O)=O)cc3)c2)n1` [Example 190, 2′-Fluoro-5′-[3-(6-methylpyridin-2-yl)-1H-pyrazol-4-yl]-1,1′-biphenyl-4-sulfonamide] gave a melting point of 115 to 118 °C. Besides, in the data set on NRK-49F cells (Rattus norvegicus), the IC50 came to 40 nM.

`Cc1cccc(-c2n[nH]cc2-c2ccc(F)c(-c3cn[nH]c3)c2)n1` [Example 194, 2-{4-[4-Fluoro-3-(1H-pyrazol-4-yl)phenyl]-1H-pyrazol-3-yl}-6-methylpyridine]: the melting point is 110 to 112 °C. The IC50 in the data set with NRK-49F cells (Rattus norvegicus) is 10 nM.

Consider `Cc1cccc(-c2n[nH]cc2-c2ccc(F)c(-c3cnn(C)c3)c2)n1` [Example 195, 2-{4-[4-Fluoro-3-(1-methyl-1H-pyrazol-4-yl)phenyl]-1H-pyrazol-3-yl}-6-methylpyridine], for which the melting point was in the range of 155 to 156 °C. Further, the IC50 with NRK-49F cells (Rattus norvegicus) came to 10 nM.

Turning to `NS(=O)(=O)c1ccc(-c2cc(-c3c[nH]nc3-c3ccccn3)ccc2F)cc1` [Example 202, 2′-Fluoro-5′-(3-pyridin-2-yl-1H-pyrazol-4-yl)-1,1′-biphenyl-4-sulfonamide], the melting point is 128 °C. Further, the IC50 in the data set with NRK-49F cells (Rattus norvegicus) came to 290 nM.

Compound `Cc1cccc(-c2n[nH]cc2-c2ccc(F)c(-c3c[nH]cn3)c2)n1` [Example 206, 2-{4-[4-Fluoro-3-(1H-imidazol-4-yl)phenyl]-1H-pyrazol-3-yl}-6-methylpyridine] returned a melting point of 229 to 233 °C. The IC50 with NRK-49F cells (Rattus norvegicus) was found to be 10 nM.

What is called IC50 is the midpoint of a concentration-inhibition curve. One may read the melting point as the temperature of the solid-liquid transition.
